Results on one compound are retold here after US20040242678A1, “Apolipo protein e secretion promoters” (priority 2001, published 2004).

For test [1], the system named is foamed C57BL/6J mouse-derived macrophages. The experiment in a line: ApoE secretion-promoting effect in foamed mouse peritoneal macrophages (Western blotting of supernatants). The class given is cell-based. Particulars: BO-653 added at 3 and 10 μmol/L, 24 hours of culture, anti-mouse ApoE antibody, FIG. 1. As to the method: (§1) 4.05 w/v % thioglycollate-elicited intraperitoneally exuded cells were prepared from C57BL/6J and ApoE-deficient mice. The cells were inoculated on 12-well plate at 1.0×10^6 cells/well. The cells were cultured at 37° C. under 5 vol % CO2. After 3 hours of culture, the culture medium was changed to a fresh one to remove inadhesive cells, leaving mouse-peritoneal macrophages in each of the wells. Next day, the mouse-peritoneal macrophages were cultured in a medium containing 50 μg of protein per mL of acetylated LDL for 24 hours to form foam cells.
(§2) To the wells containing the foamed C57BL/6J mouse-derived macrophages, 4,6-di-t-butyl-2,2-dipentyl-5-hydroxy-2,3-dihydrobenzofuran (BO-653) was added to final concentrations of 0, 3 and 10 μmol/L. After 24 hours of culture, the supernatants were collected to prepare samples for SDS-PAGE.
The samples were subjected to 10 w/v % SDS-PAGE. Following the SDS-PAGE, the bands were transferred onto nitrocellulose papers using semi-drying method and blocked with TBS containing 10 w/v % skim milk and 0.1 vol % Tween-20. Rabbit anti-mouse ApoE-antibody (#K23100R, BIODESIGN) and peroxidase-labeled anti-rabbit IgG antibody (#7071-1, Cell Signaling TECHNOLOGY) were used as the first and secondary antibodies, respectively. ApoE was detected using chemoluminescence method (PIERCE).

For test [2] the test system is unchanged. The experiment in a line: Intracellular cholesterol-removing effect in foamed macrophages (enzymatic total cholesterol measurement). The following applies: for Cholesterol Reduction (%) Means: 24 hours, relative to the vehicle (0 μmol/L = 100.0). It is filed as cell-based. As for the experimental part:
as §1, §2
On the other hand, the foamed macrophages which were cultured in the presence of BO-653 and harvested at the same time as the collection of the supernatants were extracted with a mixed solvent of hexane/2-propanol (3:2 v/v) to obtain lipids. Then, the total amount of cholesterol in the lipids was measured using the enzymatic method described by Yoshiki Kawabe et al., “Oxidation-Induced Aggregation of Rabbit Low-Density Lipoprotein by Azo Initiator”, Achieves of Biochemistry and Biophysics 310, 489-496 (1994). We regarded the total amount of cholesterol as intracellular cholesterol content of the macrophages.

The test system of test [3] is C57BL/6J mice. The experiment in a line: ApoE increasing effect in mouse serum (SDS-PAGE of lipoprotein-containing fractions). It is filed as in vivo. Particulars: high fat diet containing 0.65% BO-653 for 5 weeks versus high fat diet with no BO-653, FIG. 2. As to the method: Seven-week-old C57BL/6J mice were divided into first group of three and second group of four. The animals of the first and second groups were fed a high fat diet containing no BO-653 and 0.65% BO-653, respectively. After 5 weeks of diet initiation, the animals were anesthetized with ether and their blood was individually drawn from vena cava descendens. Serum samples were prepared from the drawn blood and 100 μL of each of the samples was placed into a tube. To the tube, 900 μL of sodium bromide solution having 1.256 density was added, and the tube was centrifuged in TL-100 desk type ultracentrifuge at 100,000 rpm for 20 hours using TLA-100.2 rotor. Lipoprotein-containing fraction thus obtained was collected and treated with 10 w/v % trichloroacetic acid solution. The precipitate was collected and dissolved into 80 μL of solution for SDS-PAGE. 10 μL of the solution was subjected to 15 w/v % SDS-PAGE and the gels were stained with Coomassie brilliant blue. By comparing the bands with molecular weight markers, ApoE was identified.

Turning to `CCCCCC1(CCCCC)Cc2c(cc(C(C)(C)C)c(O)c2C(C)(C)C)O1` [BO-653, 4,6-di-t-butyl-2,2-dipentyl-5-hydroxy-2,3-dihydrobenzofuran], the “saccharified-ApoE expression in culture supernatant” value in test [1] is “increased saccharified-ApoE expression”. Moreover, the “Cholesterol Reduction (%) Means” value in test [2] (BO-653 3 μmol/L) stood at 132.6%; in test [2] (BO-653 10 μmol/L), 145.9%. Moreover, in test [2] (treatment with BO-653, 24 hours, result in words), the “intracellular cholesterol content of macrophages” value is on record as “decrease in intracellular cholesterol content”. The “ApoE production in serum lipoprotein-containing fraction” value in test [3] is “increased ApoE production”.
